Columns and labels:
[1] = tested on: MDAMB231 breast cancer cell line; experiment: In vitro antiproliferative assay (MTT assay), MDAMB231; type: cell-based; conditions: Homo sapiens, MDA-MB-231, 48 h, 48 hrs drug incubation, read-out: IC50 in micromolar, MDAMB231 (MTT assay)
Protocol: (§1) MTT assay is a simple and sensitive assay where, metabolic reducing activity of the cells is measured. The increase of this activity in time is taken as a parameter of cell growth. If treatment with a drug impairs this increase, the action is a consequence of growth inhibition, cell killing or both. […] All cell lines were cultured in a 37° C. incubator with a 5% CO2 environment. Compounds were dissolved in DMSO with a concentration of 0.1M (stock solution). Cells were seeded into 96-well plates at suitable plating efficiency.
(§2) Following plating efficiencies were standardized for MTT assay:
(§3) In the MTT procedure, the cells were plated in 96 well plates as per predetermined plating efficiency (Table1). The plates were then incubated for 24 hrs in 5% CO2 atmosphere at 37° C. Appropriate concentrations of the drugs were then added to the plate and further incubation was carried out for 48 hrs (in 5% CO2 atmosphere at 37° C.). The assay plate was then centrifuged twice at 3000 rpm for 3 mins and supernatant was then discarded. 100 ul of MTT solution (0.5 mg/ml) was then added to each well of the plate and it was further incubated for 4 hrs (in 5% CO2 atmosphere at 37° C.) Following 4 hr incubation, the plate was then centrifuged twice, and supernatant was aspirated off very carefully. 200 ul of DMSO was then added to each well to solubilize. MTT crystals and mixed well by shaking the plate. XY graph of log percent viability was then plotted against log drug concentration.

[2] = tested on: PC3 prostate cancer cell line; experiment: In vitro antiproliferative assay (MTT assay), PC3; type: cell-based; conditions: 48 h, 48 hrs drug incubation, read-out: IC50 in micromolar, PC3 (MTT assay)
Protocol: as §1, §2, §3

[3] = tested on: DU145 prostate cancer cell line; experiment: In vitro antiproliferative assay (MTT assay), DU145; type: cell-based; conditions: Homo sapiens, DU-145, 48 h, 48 hrs drug incubation, read-out: IC50 in micromolar, DU145 (MTT assay)
Protocol: as §1, §2, §3

[4] = tested on: MDAMB231 breast cancer cell line; experiment: Soft agar colony-formation assay, MDAMB231; type: cell-based; conditions: Homo sapiens, MDA-MB-231, 168 h, 1 week, Alamar Blue, read-out: IC50 in micromolar, MDAMB231 (Soft Agar Assay)
Protocol: (§4) The Soft Agar Colony-formation Assay is an anchorage-independent growth assay in soft agar, which is one of the most stringent assays for detecting malignant transformation of cells. For this assay, malignant cells are cultured with appropriate controls in soft agar medium for 1-2 weeks. Following this incubation period, formed colonies can either be analyzed morphologically using cell stain and quantifying the number of colonies formed.
(§5) Briefly, for Soft Agar Assay a mixture of 50 ul of 2× medium (taken appropriately as per cell line) and 50 ul of 1.2% Bacto Agar were plated on to each well of 96 well micro titer assay plate. 10 ul of cells (of specific plating efficiency pre standardized for respective cell line) were mixed with 20 ul of 2× medium and 30 ul of 0.8% of Bacto Agar and 1.6 ul of drug (of appropriate concentration) in a vial and transferred to the solidified pre layers of the assay plates. The cells were then allowed to grow and form colonies at 37° C. and 5% C02 for 1 week. An intermittent feeding with 50 ul of appropriate 2× medium was performed after 3 days of experimental set up. 16 ul of Alamar Blue (1.5 mg/ml) was then added to all the wells to quantify the developed colonies. The plates were incubated for 24 hrs at 37° C. Absorbance was then measured at 630 nm. XY graph of log Percent viability was then plotted against log drug concentration.
(§6) Following plating efficiencies were standardized for Soft Agar Assay: […]

[5] = tested on: PC3 prostate cancer cell line; experiment: Soft agar colony-formation assay, PC3; type: cell-based; conditions: 168 h, 1 week, Alamar Blue, read-out: IC50 in micromolar, PC3 (Soft Agar Assay)
Protocol: as §4, §5, §6

[6] = tested on: PC3 spheres (cancer stem cells); experiment: In vitro sphere-forming assay (cancer stem cells), PC3 in Prostosphere media; conditions: for 3D sphere count of PC3 in Prostosphere media: 2000 cells/well, n = 6 ± S.D; for viability at 0.0025 µM: read-out: % Viability of spheres (PC3), 0.0025 uM; for viability at 0.0025 µM / viability at 0.025 µM / viability at 0.25 µM / viability at 2.5 µM / viability at 25 µM: GCD = 100% viability; for viability at 0.025 µM: read-out: % Viability of spheres (PC3), 0.025 uM; for viability at 0.25 µM: read-out: % Viability of spheres (PC3), 0.25 uM; for viability at 2.5 µM: read-out: % Viability of spheres (PC3), 2.5 uM; for viability at 25 µM: read-out: % Viability of spheres (PC3), 25 uM
[7] = tested on: MDAMB231 spheres (cancer stem cells); experiment: In vitro sphere-forming assay (cancer stem cells), MDAMB231 in Mammosphere media; conditions: for 3D sphere count of MDAMB231 in Mammosphere media: 2000 cells/well, n = 6 ± S.D; for viability at 0.0025 µM / viability at 0.025 µM / viability at 0.25 µM / viability at 2.5 µM / viability at 25 µM: Homo sapiens, MDA-MB-231, read-out: % Viability of spheres (MDAMB231)
Protocol: In Vitro Sphere-forming Assay: Sphere assay measures the ability of cancer stem cells (CSCs) to form spheres in specially designed serum-free medium.
Mammosphere Media Preparation (For 100 mL): 1 g methyl cellulose autoclaved with magnetic stirrer, 100 ml plain media (MEBM) was added and dissolved under magnetic stirring. After complete dissolution FGF—80 μL, EGF—40 μL, Penstrep—1 mL, Heparin—400 μL was added.
Procedure—The cells were trypsinised and made into single-cell suspension by passing through cell strainers (100 μl and 40 μl, respectively), The cells were diluted at a concentration of 2000 cells/100 μL and suspended in either Mammosphere (for breast cell lines) or Prostosphere (for prostate cell lines). 100 μL of this suspension was added into each well of 96-well suspension plates and incubated at 37 C, 50 CO2 for 24 hrs. Appropriate concentrations of the drugs (2 L) were added into respective wells with 100 μL of stem cell culture medium. Plates were incubated at 37° C., 50% CO2 for 72 hrs. After incubation, 2.5 μL of the respective drug concentration and 50 μL of stem cell culture medium were added into each well and the plates were further incubated at 37° C., 500 CO2 for 72 hrs. 3 μL of the respective drug concentration was added with 50 μL of stem cell culture medium again after incubation and plates were reincubated for 72 hrs at 37° C., 500 CO2. Number of primary spheres formed for each concentration were counted. The spheres were converted to 0 viability of spheres compared to untreated (Growth Control with DMSO, GCD).

With `c1ccc2c(-c3ccc4c(c3)OCO4)ccc(OCCN3CCOCC3)c2c1` [Formula X, 4-(2-(1-(benzo[d][1,3]dioxol-5-yl)naphthalen-4-yloxy)ethyl)morpholine] as the compound, how does the IC50 [1] read?
Its IC50 is 5.36 µM.

What about the IC50 [2] of the same compound?
The IC50 was 4 µM.

What about the IC50 [3] of the same compound?
Its IC50 is 5.96 µM.

What about the IC50 [4] of the same compound?
Its IC50 is 4.18 µM.

What about the IC50 [5] of the same compound?
The IC50 was 10.3 µM.

What about the “3D sphere count of PC3 in Prostosphere media” value (“3D sphere count of PC3” for short) ([6]; 0.0025 uM) of the same compound?
Its value is 74(±4).

What about the “3D sphere count of PC3” value ([6]; 0.025 uM) of the same compound?
Its value is 61(±3).

What about the “3D sphere count of PC3” value ([6]; 0.25 uM) of the same compound?
Its value is 53(±3).

What about the “3D sphere count of PC3” value ([6]; 2.5 uM) of the same compound?
Its value is 42(±4).

And the “3D sphere count of PC3” value ([6]; 25 uM)?
Its value is 28(±3).

What about the viability at 0.0025 µM [6] of the same compound?
Its viability at 0.0025 µM is 87%.

And the viability at 0.025 µM [6]?
The viability at 0.025 µM was 72%.

What about the viability at 0.25 µM [6] of the same compound?
Its viability at 0.25 µM is 62%.

What about the viability at 2.5 µM [6] of the same compound?
Its viability at 2.5 µM is 49%.

And the viability at 25 µM [6]?
The viability at 25 µM was 33%.

What about the “3D sphere count of MDAMB231 in Mammosphere media” value (shortened to “3D sphere count of MDAMB231”) ([7]; 0.0025 uM) of the same compound?
The value was 57(±5).

And the “3D sphere count of MDAMB231” value ([7]; 0.025 uM)?
The value was 42(±4).

What about the “3D sphere count of MDAMB231” value ([7]; 0.25 uM) of the same compound?
The value was 34(±3).

What about the “3D sphere count of MDAMB231” value ([7]; 2.5 uM) of the same compound?
The value was 21(±3).

What about the “3D sphere count of MDAMB231” value ([7]; 25 uM) of the same compound?
Its value is 7(±3).

What about the viability at 0.0025 µM [7] of the same compound?
Its viability at 0.0025 µM is 69%.

What about the viability at 0.025 µM [7] of the same compound?
The viability at 0.025 µM was 51%.

And the viability at 0.25 µM [7]?
The viability at 0.25 µM was 41%.

What about the viability at 2.5 µM [7] of the same compound?
Its viability at 2.5 µM is 25%.

And the viability at 25 µM [7]?
The viability at 25 µM was 8%.

Which IC50 [1] does the source give for `COc1cccc(-c2ccc(OCCN3CCOCC3)c3ccccc23)c1` [Formula XII, 4-(2-(1-(3-methoxyphenyl)naphthalen-4-yloxy)ethyl)morpholine] here?
The IC50 was 2.7 µM.

What about the IC50 [2] of the same compound?
Its IC50 is 3.98 µM.

And the IC50 [3]?
The IC50 was 2.59 µM.

And the IC50 [4]?
The IC50 was 3.33 µM.

What about the IC50 [5] of the same compound?
The IC50 was 4.07 µM.

And the “3D sphere count of PC3” value ([6]; 0.0025 uM)?
The value was 50(±3).

What about the “3D sphere count of PC3” value ([6]; 0.025 uM) of the same compound?
The value was 42(±3).

And the “3D sphere count of PC3” value ([6]; 0.25 uM)?
The value was 36(±3).

And the “3D sphere count of PC3” value ([6]; 2.5 uM)?
Its value is 28(±3).

And the “3D sphere count of PC3” value ([6]; 25 uM)?
The value was 9(±3).

What about the viability at 0.0025 µM [6] of the same compound?
The viability at 0.0025 µM was 61%.

And the viability at 0.025 µM [6]?
Its viability at 0.025 µM is 51%.

What about the viability at 0.25 µM [6] of the same compound?
Its viability at 0.25 µM is 44%.

What about the viability at 2.5 µM [6] of the same compound?
Its viability at 2.5 µM is 34%.

What about the viability at 25 µM [6] of the same compound?
The viability at 25 µM was 11%.

And the “3D sphere count of MDAMB231” value ([7]; 0.0025 uM)?
Its value is 47(±4).

And the “3D sphere count of MDAMB231” value ([7]; 0.025 uM)?
The value was 41(±3).

What about the “3D sphere count of MDAMB231” value ([7]; 0.25 uM) of the same compound?
Its value is 34(±3).

And the “3D sphere count of MDAMB231” value ([7]; 2.5 uM)?
The value was 30(±3).

What about the “3D sphere count of MDAMB231” value ([7]; 25 uM) of the same compound?
Its value is 9(±3).

And the viability at 0.0025 µM [7]?
The viability at 0.0025 µM was 59%.

What about the viability at 0.025 µM [7] of the same compound?
Its viability at 0.025 µM is 52%.

What about the viability at 0.25 µM [7] of the same compound?
The viability at 0.25 µM was 43%.

What about the viability at 2.5 µM [7] of the same compound?
Its viability at 2.5 µM is 38%.

What about the viability at 25 µM [7] of the same compound?
The viability at 25 µM was 11%.

With `O=C1OCc2c1c(-c1ccc3c(c1)OCO3)c1cc3c(cc1c2OCCN1CCOCC1)OCO3` [Formula XI, 4-(2-morpholinoethoxy)-9-(benzo[d][1,3]dioxol-5-yl)-6,7-methylenedioxynaphtho[2,3-c]furan-1(3H)-one] as the compound, how does the IC50 [1] read?
Its IC50 is 3.2 µM.

And the IC50 [2]?
The IC50 was 12.6 µM.

What about the IC50 [3] of the same compound?
Its IC50 is 8.18 µM.

What about the IC50 [4] of the same compound?
The IC50 was 2.7 µM.

And the IC50 [5]?
Its IC50 is 5.12 µM.

What about the “3D sphere count of PC3” value ([6]; 0.0025 uM) of the same compound?
Its value is 51(±3).

What about the “3D sphere count of PC3” value ([6]; 0.025 uM) of the same compound?
Its value is 43(±3).

What about the “3D sphere count of PC3” value ([6]; 0.25 uM) of the same compound?
The value was 32(±4).

What about the “3D sphere count of PC3” value ([6]; 2.5 uM) of the same compound?
The value was 21(±3).

What about the “3D sphere count of PC3” value ([6]; 25 uM) of the same compound?
The value was 0(±0).

And the viability at 0.0025 µM [6]?
Its viability at 0.0025 µM is 62%.

And the viability at 0.025 µM [6]?
The viability at 0.025 µM was 52%.

And the viability at 0.25 µM [6]?
The viability at 0.25 µM was 39%.

And the viability at 2.5 µM [6]?
The viability at 2.5 µM was 25%.

What about the viability at 25 µM [6] of the same compound?
The viability at 25 µM was 0%.

What about the “3D sphere count of MDAMB231” value ([7]; 0.0025 uM) of the same compound?
The value was 51(±3).

And the “3D sphere count of MDAMB231” value ([7]; 0.025 uM)?
The value was 41(±3).

What about the “3D sphere count of MDAMB231” value ([7]; 0.25 uM) of the same compound?
The value was 31(±3).

What about the “3D sphere count of MDAMB231” value ([7]; 2.5 uM) of the same compound?
The value was 20(±3).

And the “3D sphere count of MDAMB231” value ([7]; 25 uM)?
The value was 0(±0).

And the viability at 0.0025 µM [7]?
Its viability at 0.0025 µM is 64%.

What about the viability at 0.025 µM [7] of the same compound?
Its viability at 0.025 µM is 52%.

And the viability at 0.25 µM [7]?
The viability at 0.25 µM was 39%.

And the viability at 2.5 µM [7]?
The viability at 2.5 µM was 25%.

And the viability at 25 µM [7]?
The viability at 25 µM was 0%.
